Values quoted from earlier work, collected in patent US9827281B2, “Medication dispensing system” (priority 2015, dated 2017).

How the values were obtained:
[1] = test system: estrogen receptor-positive and estrogen receptor-negative breast cancer cell lines; conditions: inducing apoptosis in a concentration-dependent manner
[2] = test system: nontumorigenic mammary cells
[3] = target: T1, androgen receptor in the prostate gland (Homo sapiens, UniProt P10275)
T1 construct: host or cells: prostate gland
T1 sequence (P10275 1-920): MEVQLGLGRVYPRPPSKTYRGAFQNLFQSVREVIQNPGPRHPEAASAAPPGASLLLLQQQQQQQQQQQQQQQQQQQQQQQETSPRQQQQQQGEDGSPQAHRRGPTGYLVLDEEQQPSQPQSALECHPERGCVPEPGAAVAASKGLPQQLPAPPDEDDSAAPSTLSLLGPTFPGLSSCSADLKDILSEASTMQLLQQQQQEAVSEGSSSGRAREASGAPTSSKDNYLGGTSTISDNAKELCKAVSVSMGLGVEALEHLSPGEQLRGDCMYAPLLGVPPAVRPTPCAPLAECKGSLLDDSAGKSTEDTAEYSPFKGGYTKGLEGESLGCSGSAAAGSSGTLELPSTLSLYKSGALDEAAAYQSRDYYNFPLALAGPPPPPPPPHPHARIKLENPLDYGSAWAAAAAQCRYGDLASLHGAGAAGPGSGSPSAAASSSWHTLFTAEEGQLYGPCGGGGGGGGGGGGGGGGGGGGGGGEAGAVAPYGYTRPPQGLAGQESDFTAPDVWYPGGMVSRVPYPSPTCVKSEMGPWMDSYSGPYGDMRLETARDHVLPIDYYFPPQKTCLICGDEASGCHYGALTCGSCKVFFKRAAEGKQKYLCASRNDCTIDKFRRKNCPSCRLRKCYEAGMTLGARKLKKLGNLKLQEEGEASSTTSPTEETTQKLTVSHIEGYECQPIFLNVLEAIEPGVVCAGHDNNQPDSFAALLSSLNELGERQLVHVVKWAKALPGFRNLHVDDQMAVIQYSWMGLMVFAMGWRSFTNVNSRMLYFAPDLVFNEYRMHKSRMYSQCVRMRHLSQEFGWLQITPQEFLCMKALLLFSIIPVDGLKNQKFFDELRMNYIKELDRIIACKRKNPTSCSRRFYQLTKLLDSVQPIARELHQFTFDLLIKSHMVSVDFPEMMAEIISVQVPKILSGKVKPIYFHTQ

CB1 receptor = CB1 receptor (Homo sapiens, UniProt P21554)
Sequence of CB1 receptor (P21554 whole entry): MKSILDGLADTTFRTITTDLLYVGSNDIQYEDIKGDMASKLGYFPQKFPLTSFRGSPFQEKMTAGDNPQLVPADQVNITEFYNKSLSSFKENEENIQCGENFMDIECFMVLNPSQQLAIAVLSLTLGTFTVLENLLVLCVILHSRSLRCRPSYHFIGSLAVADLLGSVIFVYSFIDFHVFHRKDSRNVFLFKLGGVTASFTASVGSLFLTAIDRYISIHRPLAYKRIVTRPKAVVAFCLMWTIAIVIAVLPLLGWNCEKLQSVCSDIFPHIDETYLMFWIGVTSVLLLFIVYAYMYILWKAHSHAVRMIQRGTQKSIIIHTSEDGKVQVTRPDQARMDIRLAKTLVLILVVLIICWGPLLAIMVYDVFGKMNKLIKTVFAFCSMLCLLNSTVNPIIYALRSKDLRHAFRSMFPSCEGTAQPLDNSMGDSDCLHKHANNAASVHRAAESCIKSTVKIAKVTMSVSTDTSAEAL

[4] = not given; remark: listed apart in the source

C=C(C)[C@@H]1CCC(C)=C[C@H]1c1c(O)cc(CCCCC)cc1O [CBD, Cannabidiol]
survival of breast cancer cell lines [1]: inhibited the survival
affinity to cannabinoid receptors (cannabinoid receptors): low affinity
effect on nontumorigenic mammary cells [2]: little effect

CCCCCc1cc(O)c2c(c1)OC(C)(C)[C@@H]1CCC(C)=C[C@@H]21 [THC, Tetrahydrocannabinol]
specific binding of dihydroxytestosterone to the androgen receptor [3]: inhibits specific binding
apoptosis (prostate cell line, PC-3): causes apoptosis
pain sensitivity (cold-pressor test after administration): decreased pain sensitivity
time after administration at which pain reduction effects were felt (average) (cold-pressor test, dronabinol oral capsules 10 mg or 20 mg): 180 min
duration of effects (compared with smoked marijuana): lasted longer than smoked marijuana

CCCc1cc(O)c2c(c1)OC(C)(C)[C@@H]1CCC(C)=C[C@@H]21 [THCV, Tetrahydrocannabivarin]
CB1 receptor mode of action (CB1 receptor): antagonist

vitamin E
reduction in breast cancer incidence ([4]; pre-menopausal women with a family history of breast cancer, highest quantity of vitamin E consumed): 43%
risk reduction of breast cancer ([4]; women without a family history of breast cancer): 16%
